Read-outs that look alike come from different tables or passages of the source. Where a SMILES comes first, the peptide text is derived from it. Where no end group is shown, it is not given here. [ ]: non-standard residue; d: D form. The star is where a group is joined. Hexanoyl = CCCCCC(=O)*; Aib = CC(C)(N)C(=O)O
Tests used:
[1] = molecular target: T1, human VPAC2 (Homo sapiens, UniProt P41587); assay: Filter binding assay, membranes of stable VPAC2 cell line, 125I-labeled VIP tracer (Table 2)
T1 construct: expressed in transfected cells
T1 sequence (P41587 24-438): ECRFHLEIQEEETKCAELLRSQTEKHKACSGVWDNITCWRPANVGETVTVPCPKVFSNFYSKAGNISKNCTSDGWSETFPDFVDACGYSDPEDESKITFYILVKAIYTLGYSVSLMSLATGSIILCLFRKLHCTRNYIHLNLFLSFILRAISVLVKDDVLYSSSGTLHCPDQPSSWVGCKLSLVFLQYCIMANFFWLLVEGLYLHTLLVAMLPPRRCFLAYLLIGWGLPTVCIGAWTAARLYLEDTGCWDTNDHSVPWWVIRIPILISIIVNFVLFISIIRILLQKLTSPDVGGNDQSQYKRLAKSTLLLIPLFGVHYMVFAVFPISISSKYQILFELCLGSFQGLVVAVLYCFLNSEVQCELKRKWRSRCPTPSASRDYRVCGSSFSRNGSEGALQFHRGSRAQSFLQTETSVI
Experimental: (§1) For this assay, the solutions and equipment include:
(§2) Presoak solution: 0.5% Polyethyleneamine in Aqua dest.
(§3) Buffer for flushing filter plates: 25 mM HEPES pH 7.4
(§4) Blocking buffer: 25 mM HEPES pH 7.4; 0.2% protease free BSA
(§5) Assay buffer: 25 mM HEPES pH 7.4; 0.5% protease free BSA
(§6) Dilution and assay plate: PS-Microplate, U form
(§7) Filtration Plate Multiscreen FB Opaque Plate; […] Type B Glasfiber filter
(§8) In order to prepare the filter plates, aspirate the presoak solution by vacuum filtration. Flush the plates twice with 200 μL flush buffer. Add 200 μL blocking buffer to the filter plate. The filter plate is then incubated […] for 1 hour at room temperature.
(§9) Fill the assay plate with 25 μL assay buffer, 25 μL membranes (2.5 μg) suspended in assay buffer, 25 μL compound (agonist) in assay buffer, and 25 μL tracer (about 40000 cpm) in assay buffer. Incubate the filled plate for 1 hour with shaking.
(§10) Conduct the transfer from assay plate to filter plate. Aspirate the blocking buffer by vacuum filtration and wash two times with flush buffer. Transfer 90 μL from the assay plate to the filter plate. Aspirate the 90 μL transferred from assay plate and wash three times with 200 μL flush buffer. Remove the plastic support. Dry for 1 hour at 60° C. Add 30 μL Microscint. Perform the count.

[2] = molecular target: T2, human PAC1 (Homo sapiens, UniProt P41586); assay: Filter binding assay, membranes of cells transiently transfected with human PAC1, 125I-labeled PACAP-27 tracer (Table 2); parameters: expressed in transfected cells
T2 sequence (P41586 21-468): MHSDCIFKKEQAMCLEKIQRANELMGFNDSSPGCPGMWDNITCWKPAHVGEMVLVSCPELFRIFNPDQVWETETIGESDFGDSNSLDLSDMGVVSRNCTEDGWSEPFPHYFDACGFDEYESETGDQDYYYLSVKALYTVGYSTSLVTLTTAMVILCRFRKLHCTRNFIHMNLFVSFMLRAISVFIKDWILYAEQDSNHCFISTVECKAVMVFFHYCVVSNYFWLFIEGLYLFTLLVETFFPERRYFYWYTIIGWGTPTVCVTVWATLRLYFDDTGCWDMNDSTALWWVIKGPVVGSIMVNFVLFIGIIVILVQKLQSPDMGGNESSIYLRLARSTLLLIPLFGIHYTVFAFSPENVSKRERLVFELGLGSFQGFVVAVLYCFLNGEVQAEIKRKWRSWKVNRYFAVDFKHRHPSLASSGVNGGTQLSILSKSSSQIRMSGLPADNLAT
Experimental: as §1, §2, §3, §4, §5, §6, §7, §8, §9, §10

[3] = molecular target: T3, human VPAC1 (Homo sapiens, UniProt P32241); assay: Filter binding assay, membranes of cells transiently transfected with human VPAC1, 125I-labeled VIP tracer (Table 2); parameters: expressed in transfected cells
T3 sequence (P32241 31-457): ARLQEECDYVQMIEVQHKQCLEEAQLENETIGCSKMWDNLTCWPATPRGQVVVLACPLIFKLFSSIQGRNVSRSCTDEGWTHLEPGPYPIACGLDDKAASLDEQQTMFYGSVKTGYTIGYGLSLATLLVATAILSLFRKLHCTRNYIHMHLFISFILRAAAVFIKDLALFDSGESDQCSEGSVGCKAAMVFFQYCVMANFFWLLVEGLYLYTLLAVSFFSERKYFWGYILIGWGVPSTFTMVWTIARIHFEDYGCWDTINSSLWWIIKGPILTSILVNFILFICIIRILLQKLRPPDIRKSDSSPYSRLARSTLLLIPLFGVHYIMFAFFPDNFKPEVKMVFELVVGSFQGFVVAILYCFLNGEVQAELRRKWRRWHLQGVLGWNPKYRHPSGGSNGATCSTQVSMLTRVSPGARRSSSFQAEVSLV
Experimental: as §1, §2, §3, §4, §5, §6, §7, §8, §9, §10

[4] = molecular target: T1, human VPAC2; assay: Alpha screen cAMP in vitro potency, human VPAC2 receptor; format: cell-based
Experimental: Alpha screen: Cells are washed in the culture flask once with PBS. Then, the cells are rinsed with enzyme free dissociation buffer. The dissociated cells are removed. The cells are then spun down and washed in stimulation buffer. For each data point, 50,000 cells suspended in stimulation buffer are used. To this buffer, Alpha screen acceptor beads are added along with the stimuli. This mixture is incubated for 60 minutes. Lysis buffer and Alpha screen donor beads are added and are incubated for 60 to 120 minutes. The Alpha screen signal (indicative of intracellular cAMP levels) is read in a suitable instrument (e.g. AlphaQuest from Perkin-Elmer). Steps including Alpha screen donor and acceptor beads are performed in reduced light.

[5] = read-out: Human VPAC2 Receptor Binding
[6] = read-out: Human PAC1 Receptor Binding
[7] = read-out: Human VPAC1 Receptor Binding
[8] = cAMP generation, single result from two analyses performed in a single run, read-out: Human VPAC2 Receptor: Alpha Screen EC50

Compound | IC50 [1, 5] [nM] | IC50 [2, 6] [nM] | IC50 [3, 7] [nM] | EC50 [4, 8] [nM] | IC50 [1] [nM] | IC50 [2] [nM] | IC50 [3] [nM] | EC50 [4] [nM]
CCCCCC(=O)N[C@@H](Cc1c[nH]cn1)C(=O)N[C@@H](CO)C(=O)N[C@@H](CC(=O)O)C(=O)N[C@@H](C)C(=O)N[C@H](C(=O)N[C@@H](Cc1ccccc1)C(=O)N[C@H](C(=O)N[C@@H](CC(=O)O)C(=O)N[C@@H](CC(N)=O)C(=O)N[C@@H](Cc1ccc(O)cc1)C(=O)N[C@H](C(=O)N[C@@H](CCCNC(=N)N)C(=O)N[C@@H](CC(C)C)C(=O)N[C@@H](CCCNC(=N)N)C(=O)N[C@@H](CCCCN)C(=O)N[C@@H](CCC(N)=O)C(=O)N[C@H](C(=O)N[C@@H](C)C(=O)N[C@@H](C)C(=O)N[C@@H](CCCCN)C(=O)N[C@@H](CCCCN)C(=O)N[C@@H](Cc1ccc(O)cc1)C(=O)N[C@@H](CC(C)C)C(=O)N[C@@H](CCC(N)=O)C(=O)N[C@@H](CO)C(=O)N[C@H](C(=O)N[C@@H](CCCCN)C(=O)N[C@@H](CC(N)=O)C(=O)NCC(=O)NCC(=O)N1CCC[C@H]1C(=O)N[C@@H](CO)C(=O)N[C@@H](CO)C(=O)NCC(=O)N[C@@H](C)C(=O)N1CCC[C@H]1C(=O)N1CCC[C@H]1C(=O)N1CCC[C@H]1C(=O)N[C@@H](CO)C(=O)O)[C@@H](C)CC)C(C)C)[C@@H](C)O)[C@@H](C)O)C(C)C [Agonist P154] (Hexanoyl-HSDAVFTDNYTRLRKQVAAKKYLQSIKNGGPSSGAPPPS-OH; C-terminus assumed) | 0.31 | 1960 | 141 | 0.18 |  |  |  | 
Hexanoyl-HSDAVFTDNYTRLRKQVAAKKYLQSVKNKRYGGPSSGAPPPS [Agonist P109] | 0.11 | 257 | 274 | 0.22 |  |  |  | 
Hexanoyl-HSDAVFTDNYTRLRKQVAAKKYLQQIKNKRYGGPSSGAPPPS [Agonist P124] | 0.2 | 264 | 211 | 0.09 |  |  |  | 
Hexanoyl-HSDAVFTDNYTRLRRQVAARRYLQSIRNRRYGGPSSGAPPPS [Agonist P98] | 0.17 | 96.3 | 69 | 0.15 |  |  |  | 
Hexanoyl-HSDAVFTDNYTRLRKQVAAKKYLQSLKNKRYGGPSSGAPPPS [Agonist P107] | 0.16 | 225 | 122 | 0.12 |  |  |  | 
Hexanoyl-HSDAVFTDNYTRLRKQVAAKKYLQYIKNKRYGGPSSGAPPPS [Agonist P127] | 0.23 | 209 | 290 | 0.22 |  |  |  | 
Hexanoyl-HSDAVFTDNYTRLRKQVAAKKYLQSYKNKRYGGPSSGAPPPS [Agonist P111] | 0.19 | 258 | 300 | 0.34 |  |  |  | 
Hexanoyl-HSDAVFTDNYTRLRKQVAAKKYLQSTKNKRYGGPSSGAPPPS [Agonist P108] | 0.45 | 486 | 332 | 0.27 |  |  |  | 
Hexanoyl-HSDAVFTDNYTRLRKQVAAKKYLQS[Aib]KNKRYGGPSSGAPPPS [Agonist P188] | 0.29 | 700 | 6.19 | 0.32 |  |  |  | 
CCCCCC(=O)N[C@@H](Cc1c[nH]cn1)C(=O)N[C@@H](CO)C(=O)N[C@@H](CC(=O)O)C(=O)N[C@@H](C)C(=O)N[C@H](C(=O)N[C@@H](Cc1ccccc1)C(=O)N[C@H](C(=O)N[C@@H](CC(=O)O)C(=O)N[C@@H](CC(N)=O)C(=O)N[C@@H](Cc1ccc(O)cc1)C(=O)N[C@H](C(=O)N[C@@H](CCCNC(=N)N)C(=O)N[C@@H](CC(C)C)C(=O)N[C@@H](CCCNC(=N)N)C(=O)N[C@@H](CCCCN)C(=O)N[C@@H](CCC(N)=O)C(=O)N[C@H](C(=O)N[C@@H](C)C(=O)N[C@@H](C)C(=O)N[C@@H](CCCCN)C(=O)N[C@@H](CCCCN)C(=O)N[C@@H](Cc1ccc(O)cc1)C(=O)N[C@@H](CC(C)C)C(=O)N[C@@H](CCC(N)=O)C(=O)N[C@@H](CO)C(=O)N[C@H](C(=O)N[C@@H](CCCCN)C(=O)N[C@@H](CC(N)=O)C(=O)NCC(=O)N[C@@H](CCCNC(=N)N)C(=O)N1CCC[C@H]1C(=O)N[C@@H](CO)C(=O)N[C@@H](CO)C(=O)NCC(=O)N[C@@H](C)C(=O)N1CCC[C@H]1C(=O)N1CCC[C@H]1C(=O)N1CCC[C@H]1C(=O)N[C@@H](CO)C(=O)O)[C@@H](C)CC)C(C)C)[C@@H](C)O)[C@@H](C)O)C(C)C [Agonist P271] (Hexanoyl-HSDAVFTDNYTRLRKQVAAKKYLQSIKNGRPSSGAPPPS-OH; C-terminus assumed) | 0.14 | 352 | 67.6 | 0.12 |  |  |  | 
Hexanoyl-H[Aib]DAVFTDNYTRLRKQVAAKKYLQSIKNKRYGGPSSGAPPPS [Agonist P166] | 0.46 | 127 | 248 | 0.15 |  |  |  | 
Hexanoyl-HSDAVFTDNYTRLRKQVAAKKYLQNIKNKRYGGPSSGAPPPS [Agonist P125] | 0.19 | 300 | 179 | 0.14 |  |  |  | 
Hexanoyl-HSDAVFTDNYTRLRKQVAAKKYLQSIKNKRGGPSSGAPPPS [Agonist P123] | 0.26 | 265 | 166 | 0.12 |  |  |  | 
Hexanoyl-HSDAVFTDNYTRLRKQVAAKKYLQLIKNKRYGGPSSGAPPPS [Agonist P114] | 0.56 | 188 | 171 | 0.14 |  |  |  | 
Hexanoyl-HSDAVFTDNYTRLRKQVAAKKYLQSIKNSRGGPSSGAPPPS [Agonist P122] | 0.17 | 304 | 77.6 | 0.14 |  |  |  | 
MHSDAVFTDNYTRLLAKLALQKYLQSIKNKRYGGPSSGAPPPS [Agonist P140] |  |  |  |  | 1.94 | 485 | 1140 | 0.07
Hexanoyl-HSDAVFTDNYTRLRKQVAAKKYLQSIKNKKGGPSSGAPPPS [Agonist P121] | 0.19 | 253 | 169 | 0.1 |  |  |  | 
Hexanoyl-H[dA]DAVFTDNYTRLRKQVAAKKYLQSIKNKRYGGPSSGAPPPS [Agonist P101] | 0.18 | 274 | 93.6 | 0.21 |  |  |  | 
Hexanoyl-HSDAVFTDNYTRLRKQVAAKKYLQWIKNKRYGGPSSGAPPPS [Agonist P117] | 0.51 | 243 | 442 | 0.2 |  |  |  | 
Hexanoyl-HSDAVFTDNYTRLLAKVALQKYLQSIKNKRYGGPSSGAPPPS [Agonist P196] | 0.85 | > 25000 | 453 | 0.23 |  |  |  | 
